Like-named read-outs stand apart in the source and are kept apart here.
What was measured:
H226B cells = test: Cell viability, H226B lung cancer cells; type: cell-based, human; conditions: Homo sapiens, H226B, Lung, read-out: IC50 (−LogM) (converted)
A549 cells = test: Cell viability, A549 lung cancer cells; type: cell-based, human; conditions: Homo sapiens; A549, Lung; read-out: IC50 (−LogM) (converted)
A549CK8 = test: Cell viability, A549CK8 lung cancer cells; type: cell-based, human; conditions: Homo sapiens; A549CK8, Lung; read-out: IC50 (−LogM) (converted)
Hct116 = test: Cell viability, Hct116 colon cancer cells; type: cell-based, human; conditions: Homo sapiens, HCT-116; Hct116, Colon; read-out: IC50 (−LogM) (converted)
CT116P53 = test: Cell viability, CT116P53 colon cancer cells; type: cell-based, human; conditions: Homo sapiens; CT116P53, Colon; read-out: IC50 (−LogM) (converted)
HKE3 = test: Cell viability, HKE3 colon cancer cells; type: cell-based, human; conditions: Homo sapiens, HKE3, Colon, read-out: IC50 (−LogM) (converted)
H1299 cells = test: Cell viability, H1299 lung cancer cells; type: cell-based, human; conditions: Homo sapiens, NCI-H1299; h1299, Lung; read-out: IC50 (−LogM) (converted)
AsPC-1 = test: Cell viability, AsPC-1 pancreatic cancer cells; type: cell-based, human; conditions: Homo sapiens; ASPC1, Pancrease; read-out: IC50 (−LogM) (converted)
DLD1 = test: Cell viability, DLD1 colon cancer cells; type: cell-based, human; conditions: Homo sapiens, DLD-1; DLD1, Colon; read-out: IC50 (−LogM) (converted)
Heb46 = test: Cell viability, Heb46 kidney cells; type: cell-based
Heb44 = test: Cell viability, Heb44 kidney cells; type: cell-based
Capanc-1 = test: Cell viability, Capanc-1 pancreatic cancer cells; type: cell-based, human; conditions: Homo sapiens, Pancreatic cancer cell; capanc1, Pancrease; read-out: IC50 (−LogM) (converted)
miapac = test: Cell viability, miapac pancreatic cancer cells; type: cell-based, human; conditions: Homo sapiens, Pancreatic cancer cell; miapac, Pancrease; read-out: IC50 (−LogM) (converted)
H2122 = test: Cell viability, H2122 lung cancer cells; type: cell-based, human; conditions: Homo sapiens, NCI-H2122; H2122, Lung; read-out: IC50 (−LogM) (converted)
H2009 = test: Cell viability, H2009 lung cancer cells; type: cell-based, human; conditions: Homo sapiens, NCI-H2009; H2009, Lung; read-out: IC50 (−LogM) (converted)
H1933 = test: Cell viability, H1933 lung cancer cells; type: cell-based, human; conditions: Homo sapiens; H1933, Lung; read-out: IC50 (−LogM) (converted)
H1395 = test: Cell viability, H1395 lung cancer cells; type: cell-based, human; conditions: Homo sapiens, NCI-H1395; H1395, Lung; read-out: IC50 (−LogM) (converted)
Ovcar3 = test: Cell viability, Ovcar3 ovary cancer cells; type: cell-based; conditions: Homo sapiens, OVCAR-3
U251 = test: NCI in-vitro testing, U251 (CNS Cancer)
CCRF-CEM = test: NCI in-vitro testing, CCRF-CEM (Leukemia)
KM12 = test: NCI in-vitro testing, KM12 (Colon Cancer)
SF-295 = test: NCI in-vitro testing, SF-295 (CNS Cancer)
SNB-19 = test: NCI in-vitro testing, SNB-19 (CNS Cancer)
A498 = test: NCI in-vitro testing, A498 (Renal Cancer)
HCC-2998 = test: NCI in-vitro testing, HCC-2998 (Colon Cancer)
HOP-92 = test: NCI in-vitro testing, HOP-92 (Non-Small Cell Lung Cancer)
NCI-H226 = test: NCI in-vitro testing, NCI-H226 (Non-Small Cell Lung Cancer)

OCc1cn(Cc2ccc(Cl)cc2)c2ccccc12 [Oncrasin K060, 1H-Indole-3-methanol, 1-[(4-chlorophenyl)methyl]-]
IC50 (H226B cells; first H226B line): 2.51 nM | IC50 (H226B cells; second H226B line): 3.16 nM | IC50 (A549 cells): 2000 nM | IC50 (A549CK8): 1000 nM | IC50 (Hct116): 100 nM | IC50 (CT116P53): < 31600 nM | IC50 (HKE3; first HKE3 line): 25.1 nM | IC50 (HKE3; second HKE3 line): < 3.16 nM | IC50 (H1299 cells): 3160 nM | IC50 (AsPC-1): 2000 nM | IC50 (DLD1): < 31600 nM | IC50 (Heb46): 200 nM | IC50 (Heb44): 10 nM | IC50 (Capanc-1): 10000 nM | IC50 (miapac): < 31600 nM | IC50 (H2122): 1000 nM | IC50 (H2009): 15800 nM | IC50 (H1933): 10000 nM | IC50 (H1395): 20000 nM | IC50 (Ovcar3): 100 nM | GI50 (U251; Homo sapiens, U-251): 2460 nM | CC50 (U251; Homo sapiens, U-251, read-out: LC50): > 100000 nM | GI50 (U251; Homo sapiens, U-251, read-out: Log10 GI50 (converted)): 2450 nM | TGI (U251; U251): 2.63E−5 Molar | Percent Growth (U251; U251, Log10 Concentration −4.0 Molar): −35% | Percent Growth (U251; U251, Log10 Concentration −5.0 Molar): 25% | Percent Growth (U251; U251, Log10 Concentration −6.0 Molar): 55% | Percent Growth (U251; U251, Log10 Concentration −7.0 Molar): 84% | Percent Growth (U251; U251, Log10 Concentration −8.0 Molar): 93% | TGI (CCRF-CEM): 4.31E−6 Molar | GI50 (CCRF-CEM; Homo sapiens): 1740 nM | CC50 (CCRF-CEM; Homo sapiens, read-out: LC50): 14800 nM | GI50 (CCRF-CEM; Homo sapiens, read-out: Log10 GI50 (converted)): 1740 nM | Percent Growth (CCRF-CEM; Log10 Concentration −4.0 Molar): −67% | Percent Growth (CCRF-CEM; Log10 Concentration −5.0 Molar): −47% | Percent Growth (CCRF-CEM; Log10 Concentration −6.0 Molar): 81% | Percent Growth (CCRF-CEM; Log10 Concentration −7.0 Molar): 97% | Percent Growth (CCRF-CEM; Log10 Concentration −8.0 Molar): 100% | GI50 (KM12; Homo sapiens, KM12): 18300 nM | CC50 (KM12; Homo sapiens, KM12, read-out: LC50): 9440 nM | GI50 (KM12; Homo sapiens, KM12, read-out: Log10 GI50 (converted)): 18200 nM | TGI (KM12; KM12): 1.15E−6 Molar | Percent Growth (KM12; KM12, Log10 Concentration −4.0 Molar): −64% | Percent Growth (KM12; KM12, Log10 Concentration −5.0 Molar): 87% | Percent Growth (KM12; KM12, Log10 Concentration −6.0 Molar): 102% | Percent Growth (KM12; KM12, Log10 Concentration −7.0 Molar): 113% | Percent Growth (KM12; KM12, Log10 Concentration −8.0 Molar): 108% | GI50 (SF-295; Homo sapiens, SF-295): 14300 nM | CC50 (SF-295; Homo sapiens, SF-295, read-out: LC50): > 100000 nM | GI50 (SF-295; Homo sapiens, SF-295, read-out: Log10 GI50 (converted)): 1410 nM | TGI (SF-295; SF-295): 3.52E−5 Molar | Percent Growth (SF-295; SF-295, Log10 Concentration −4.0 Molar): −15% | Percent Growth (SF-295; SF-295, Log10 Concentration −5.0 Molar): 18% | Percent Growth (SF-295; SF-295, Log10 Concentration −6.0 Molar): 56% | Percent Growth (SF-295; SF-295, Log10 Concentration −7.0 Molar): 80% | Percent Growth (SF-295; SF-295, Log10 Concentration −8.0 Molar): 104% | GI50 (SNB-19; Homo sapiens, SNB-19): 17600 nM | CC50 (SNB-19; Homo sapiens, SNB-19, read-out: LC50): > 100000 nM | GI50 (SNB-19; Homo sapiens, SNB-19, read-out: Log10 GI50 (converted)): 17800 nM | TGI (SNB-19; SNB-19): 5.69E−5 Molar | Percent Growth (SNB-19; SNB-19, Log10 Concentration −4.0 Molar): −24% | Percent Growth (SNB-19; SNB-19, Log10 Concentration −5.0 Molar): 74% | Percent Growth (SNB-19; SNB-19, Log10 Concentration −6.0 Molar): 91% | Percent Growth (SNB-19; SNB-19, Log10 Concentration −7.0 Molar): 97% | Percent Growth (SNB-19; SNB-19, Log10 Concentration −8.0 Molar): 103% | TGI (A498; A498): 3.33E−8 Molar | Percent Growth (A498; A498, Log10 Concentration −4.0 Molar): −94% | Percent Growth (A498; A498, Log10 Concentration −5.0 Molar): −95% | Percent Growth (A498; A498, Log10 Concentration −6.0 Molar): −87% | Percent Growth (A498; A498, Log10 Concentration −7.0 Molar): −56% | Percent Growth (A498; A498, Log10 Concentration −8.0 Molar): 61% | GI50 (A498; Homo sapiens, A498): 12.4 nM | CC50 (A498; Homo sapiens, A498, read-out: LC50): 89 nM | GI50 (A498; Homo sapiens, A498, read-out: Log10 GI50 (converted)): 12.3 nM | TGI (HCC-2998; HCC-2998): 2.04E−5 Molar | Percent Growth (HCC-2998; HCC-2998, Log10 Concentration −4.0 Molar): −97% | Percent Growth (HCC-2998; HCC-2998, Log10 Concentration −5.0 Molar): 43% | Percent Growth (HCC-2998; HCC-2998, Log10 Concentration −6.0 Molar): 62% | Percent Growth (HCC-2998; HCC-2998, Log10 Concentration −7.0 Molar): 86% | Percent Growth (HCC-2998; HCC-2998, Log10 Concentration −8.0 Molar): 95% | GI50 (HCC-2998; Homo sapiens, HCC 2998): 4330 nM | CC50 (HCC-2998; Homo sapiens, HCC 2998, read-out: LC50): 45200 nM | GI50 (HCC-2998; Homo sapiens, HCC 2998, read-out: Log10 GI50 (converted)): 4370 nM | TGI (HOP-92; HOP-92): 2.39E−5 Molar | Percent Growth (HOP-92; HOP-92, Log10 Concentration −4.0 Molar): −60% | Percent Growth (HOP-92; HOP-92, Log10 Concentration −5.0 Molar): 34% | Percent Growth (HOP-92; HOP-92, Log10 Concentration −6.0 Molar): 88% | Percent Growth (HOP-92; HOP-92, Log10 Concentration −7.0 Molar): 81% | Percent Growth (HOP-92; HOP-92, Log10 Concentration −8.0 Molar): 97% | GI50 (HOP-92; Homo sapiens, HOP-92): 5170 nM | CC50 (HOP-92; Homo sapiens, HOP-92, read-out: LC50): 77600 nM | GI50 (HOP-92; Homo sapiens, HOP-92, read-out: Log10 GI50 (converted)): 5130 nM | GI50 (NCI-H226; Homo sapiens, NCI-H226): < 10 nM | CC50 (NCI-H226; Homo sapiens, NCI-H226, read-out: LC50): 501 nM | GI50 (NCI-H226; Homo sapiens, NCI-H226, read-out: Log10 GI50 (converted)): < 10 nM | TGI (NCI-H226; NCI-H226): 4.48E−8 Molar | Percent Growth (NCI-H226; NCI-H226, Log10 Concentration −4.0 Molar): −65% | Percent Growth (NCI-H226; NCI-H226, Log10 Concentration −5.0 Molar): −68% | Percent Growth (NCI-H226; NCI-H226, Log10 Concentration −6.0 Molar): −82% | Percent Growth (NCI-H226; NCI-H226, Log10 Concentration −7.0 Molar): −22% | Percent Growth (NCI-H226; NCI-H226, Log10 Concentration −8.0 Molar): 40%
